From US20100168125A1, “INDOLIZINES AND AZA-ANALOG DERIVATIVES THEREOF AS CNS ACTIVE COMPOUNDS” (priority 2007, published 2010)
Read-outs that look alike come from different tables or passages of the source.

Key:
human D4.4 receptor = molecular target: T1, human D4.4 receptor (Homo sapiens, UniProt P21917); test: radioligand binding with [^3H]spiperone, D4.4
T1 construct: expressed in transfected cells; host or cells: Chinese hamster ovary (CHO) cells, membranes
T1 sequence (P21917 1-419): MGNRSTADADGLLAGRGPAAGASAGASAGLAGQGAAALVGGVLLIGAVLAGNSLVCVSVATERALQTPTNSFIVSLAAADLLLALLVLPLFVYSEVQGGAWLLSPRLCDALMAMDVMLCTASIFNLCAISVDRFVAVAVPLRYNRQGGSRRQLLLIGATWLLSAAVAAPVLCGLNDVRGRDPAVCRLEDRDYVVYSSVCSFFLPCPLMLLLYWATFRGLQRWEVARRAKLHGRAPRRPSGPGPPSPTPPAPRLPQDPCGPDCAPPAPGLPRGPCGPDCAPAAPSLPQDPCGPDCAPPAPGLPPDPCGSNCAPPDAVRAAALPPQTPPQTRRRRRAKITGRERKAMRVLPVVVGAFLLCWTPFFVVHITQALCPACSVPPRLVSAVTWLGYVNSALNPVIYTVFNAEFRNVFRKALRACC
Method in brief: (§1)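 Membranes from CHO cell lines expressing each human receptor subtype incubated with [^3H]spiperone. Test compounds spanned subnanomolar to micromolar concentrations in competition format.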

human D3 receptor = molecular target: T2, human D3 receptor (Homo sapiens, UniProt P35462); test: radioligand binding with [^3H]spiperone, D3
T2 construct: expressed in transfected cells; host or cells: Chinese hamster ovary (CHO) cells, membranes
T2 sequence (P35462 whole entry): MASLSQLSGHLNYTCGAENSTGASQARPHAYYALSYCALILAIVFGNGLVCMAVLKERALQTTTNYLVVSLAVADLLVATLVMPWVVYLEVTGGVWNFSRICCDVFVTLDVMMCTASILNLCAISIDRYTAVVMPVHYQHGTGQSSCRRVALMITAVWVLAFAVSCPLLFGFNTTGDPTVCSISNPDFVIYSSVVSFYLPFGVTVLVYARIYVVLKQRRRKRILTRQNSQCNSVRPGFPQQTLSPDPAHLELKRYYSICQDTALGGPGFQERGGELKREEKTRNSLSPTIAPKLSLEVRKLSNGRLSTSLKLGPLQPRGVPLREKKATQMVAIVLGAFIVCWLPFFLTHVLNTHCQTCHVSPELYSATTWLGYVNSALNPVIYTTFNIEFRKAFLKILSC
Method in brief: as §1

human D2short receptor = molecular target: T3, human D2short receptor (Homo sapiens, UniProt P14416); test: radioligand binding with [^3H]spiperone, D2short; conditions: read-out: Ki D2sh
T3 construct: expressed in transfected cells; host or cells: Chinese hamster ovary (CHO) cells, membranes
T3 sequence (P14416 1-414 isoform P14416-2): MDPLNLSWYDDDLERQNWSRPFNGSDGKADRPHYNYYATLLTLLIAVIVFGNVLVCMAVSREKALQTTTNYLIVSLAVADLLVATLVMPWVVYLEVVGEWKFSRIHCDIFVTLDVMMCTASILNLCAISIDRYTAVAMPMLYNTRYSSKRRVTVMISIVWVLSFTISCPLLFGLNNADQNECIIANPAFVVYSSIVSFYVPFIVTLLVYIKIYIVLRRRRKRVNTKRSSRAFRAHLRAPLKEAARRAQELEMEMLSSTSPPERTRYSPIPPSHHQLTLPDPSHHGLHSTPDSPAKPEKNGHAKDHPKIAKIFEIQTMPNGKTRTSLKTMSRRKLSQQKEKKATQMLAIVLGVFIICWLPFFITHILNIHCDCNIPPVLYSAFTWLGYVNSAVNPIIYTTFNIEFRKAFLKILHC
Method in brief: as §1

5-HT1A receptor = molecular target: T4, 5-HT1A receptor (Sus scrofa, UniProt A0A4X1UTF5); test: radioligand binding, porcine cortical membranes, [^3H]8-OH-DPAT and [^3H]WAY 100635
T4 construct: membrane preparations from porcine cortical material; from tissue; host or cells: porcine cerebral cortex membranes
T4 sequence (A0A4X1UTF5 1-422): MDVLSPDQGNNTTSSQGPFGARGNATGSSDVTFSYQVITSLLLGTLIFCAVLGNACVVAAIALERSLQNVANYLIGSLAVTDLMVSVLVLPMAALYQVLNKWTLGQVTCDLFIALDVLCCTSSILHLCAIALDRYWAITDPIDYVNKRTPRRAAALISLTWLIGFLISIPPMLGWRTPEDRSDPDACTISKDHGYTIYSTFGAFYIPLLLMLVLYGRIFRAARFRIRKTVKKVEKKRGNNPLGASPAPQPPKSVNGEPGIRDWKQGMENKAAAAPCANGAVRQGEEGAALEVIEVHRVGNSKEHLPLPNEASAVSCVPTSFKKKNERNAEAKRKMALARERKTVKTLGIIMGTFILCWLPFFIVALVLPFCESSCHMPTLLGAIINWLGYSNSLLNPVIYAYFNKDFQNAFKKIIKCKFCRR

human D2long receptor = molecular target: T5, human D2long receptor (Homo sapiens, UniProt P14416); test: radioligand binding with [^3H]spiperone, D2long; conditions: read-out: Ki D2lo
T5 construct: expressed in transfected cells; host or cells: Chinese hamster ovary (CHO) cells, membranes
T5 sequence (P14416 whole entry): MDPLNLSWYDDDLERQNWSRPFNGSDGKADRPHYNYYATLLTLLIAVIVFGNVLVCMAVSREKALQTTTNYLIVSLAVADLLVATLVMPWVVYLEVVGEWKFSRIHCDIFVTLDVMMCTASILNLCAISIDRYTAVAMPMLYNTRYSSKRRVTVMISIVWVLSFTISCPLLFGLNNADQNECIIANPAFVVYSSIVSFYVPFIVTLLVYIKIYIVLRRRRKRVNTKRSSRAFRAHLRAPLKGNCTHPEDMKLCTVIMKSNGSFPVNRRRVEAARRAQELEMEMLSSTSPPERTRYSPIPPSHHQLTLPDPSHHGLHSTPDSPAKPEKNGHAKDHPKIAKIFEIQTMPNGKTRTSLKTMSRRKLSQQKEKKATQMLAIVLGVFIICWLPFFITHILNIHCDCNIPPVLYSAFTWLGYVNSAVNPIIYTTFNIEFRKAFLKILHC
Method in brief: as §1

[1] = molecular target: dopamine D2short receptor (Homo sapiens, UniProt P14416); test: [^35S]GTPγS-incorporation assay, intrinsic activity; conditions: for Emax: read-out: D2short: [^35S]GTPγS intrinsic activity, % activity of quinpirol
Sequence of dopamine D2short receptor (P14416 1-414 isoform P14416-2): as the sequence (P14416 1-414 isoform P14416-2) above

5-HT2 receptor = molecular target: T6, 5-HT2 receptor (Sus scrofa, UniProt P50129); test: radioligand binding, porcine cortical membranes, [^3H]ketanserin
T6 construct: membrane preparations from porcine cortical material; from tissue; host or cells: porcine cerebral cortex membranes
T6 sequence (P50129 whole entry): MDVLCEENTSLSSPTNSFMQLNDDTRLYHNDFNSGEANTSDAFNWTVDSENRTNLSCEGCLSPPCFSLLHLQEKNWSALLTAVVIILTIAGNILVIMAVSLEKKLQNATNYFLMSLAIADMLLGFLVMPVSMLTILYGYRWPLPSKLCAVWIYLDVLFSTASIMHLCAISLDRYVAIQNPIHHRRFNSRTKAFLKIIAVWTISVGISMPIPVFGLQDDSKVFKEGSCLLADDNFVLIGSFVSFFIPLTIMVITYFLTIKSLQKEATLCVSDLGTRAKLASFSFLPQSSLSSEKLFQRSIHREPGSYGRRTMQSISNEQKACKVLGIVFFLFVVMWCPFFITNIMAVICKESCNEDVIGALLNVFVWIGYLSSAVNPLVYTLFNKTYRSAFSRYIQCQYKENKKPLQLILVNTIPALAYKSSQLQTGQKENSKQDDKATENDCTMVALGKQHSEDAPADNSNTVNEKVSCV

[2] = [^3H]spiperone, CHO membranes, mean of 2 to 4 experiments
[3] = porcine cortical membranes, [^3H]ketanserin
[4] = ether alkylene linker compounds

Oc1ccc(N2CCN(CCCCOc3ccn4nccc4c3)CC2)cc1 [Example E20, 5-[4-[4-(4-Hydroxyphenyl)piperazin-1-yl]butoxy]pyrazolo[1,5-a]pyridine]
Ki (human D4.4 receptor; [2]): 301 to 3000 nM
Ki (human D3 receptor; [2]): 30 to 300 nM
Ki (human D2short receptor; [2]): 30 to 300 nM
Ki (5-HT1A receptor; porcine cortical membranes): > 3000 nM
Ki (human D2long receptor; [2]): 30 to 300 nM
Emax [1]: 15 to 40%
melting point: 124 °C
Ki (5-HT2 receptor; [3]): 301 to 3000 nM

O=Cc1cnn2ccc(OCCCCN3CCN(c4ccccc4Cl)CC3)cc12 [Example E23, 5-[4-[4-(2-Chlorophenyl)piperazin-1-yl]butoxy]pyrazolo[1,5-a]pyridine-3-carbaldehyde]
Ki (human D4.4 receptor; [2]): < 30 nM
Ki (human D3 receptor; [2]): < 30 nM
Ki (human D2short receptor; [2]): < 30 nM
Ki (5-HT1A receptor; porcine cortical membranes): < 30 nM
Ki (human D2long receptor; [2]): < 30 nM
Emax [1]: 15 to 40%
melting point: 116 °C
Ki (5-HT2 receptor; [3]): 301 to 3000 nM

COc1ccc(N2CCN(CCCCOc3ccn4ncc(C=O)c4c3)CC2)cc1 [Example E24, 5-[4-[4-(4-Methoxyphenyl)piperazin-1-yl]butoxy]pyrazolo[1,5-a]pyridine-3-carbaldehyde]
Ki (human D4.4 receptor; [2]): 301 to 3000 nM
Ki (human D3 receptor; [2]): 301 to 3000 nM
Ki (human D2short receptor; [2]): 30 to 300 nM
Ki (5-HT1A receptor; porcine cortical membranes): 30 to 300 nM
Ki (human D2long receptor; [2]): 30 to 300 nM
Emax [1]: < 15%
melting point: 114 °C
Ki (5-HT2 receptor; [3]): > 3000 nM

O=Cc1cnn2ccc(OCCCCN3CCN(c4ccc(Cl)cc4)CC3)cc12 [Example E25]
Ki (human D4.4 receptor; [2]): 30 to 300 nM
Ki (human D3 receptor; [2]): 30 to 300 nM
Ki (human D2short receptor; [2]): < 30 nM
Ki (5-HT1A receptor; porcine cortical membranes): 30 to 300 nM
Ki (human D2long receptor; [2]): < 30 nM
Emax [1]: 15 to 40%
melting point: 113 °C
Ki (5-HT2 receptor; [3]): 301 to 3000 nM

O=Cc1cnn2ccc(OCCCCN3CCN(c4ccc(O)cc4)CC3)cc12 [Example E26, 5-[4-[4-(4-Hydroxyphenyl)piperazin-1-yl]butoxy]pyrazolo[1,5-a]pyridine-3-carbaldehyde]
Ki (human D4.4 receptor; [2]): 30 to 300 nM
Ki (human D3 receptor; [2]): 30 to 300 nM
Ki (human D2short receptor; [2]): < 30 nM
Ki (5-HT1A receptor; porcine cortical membranes): 30 to 300 nM
Ki (human D2long receptor; [2]): 30 to 300 nM
Emax [1]: 40 to 75%
melting point: 164 °C
Ki (5-HT2 receptor; [3]): 301 to 3000 nM

ON=Cc1cnn2ccc(OCCCCN3CCN(c4ccccc4Cl)CC3)cc12 [Example E32, (s-trans) 5-[4-[4-(2-Chlorophenyl)piperazin-1-yl]butoxy[pyrazolo[1,5-a]pyridine-3-carbaldehyde oxime]
Ki (human D4.4 receptor; [2]): < 30 nM
Ki (human D3 receptor; [2]): < 30 nM
Ki (human D2short receptor; [2]): < 30 nM
Ki (5-HT1A receptor; porcine cortical membranes): < 30 nM
Ki (human D2long receptor; [2]): < 30 nM
Emax [1]: 15 to 40%
melting point: 174 °C
Ki (5-HT2 receptor; [3]): 30 to 300 nM

ON=Cc1cnn2ccc(OCCCCN3CCN(c4ccccc4Cl)CC3)cc12 [Example E35, (s-cis) 5-[4-[4-(2-Chlorophenyl)piperazin-1-yl]butoxy]pyrazolo[1,5-a]pyridine-3-carbaldehyde oxime]
Ki (human D4.4 receptor; [2]): < 30 nM
Ki (human D3 receptor; [2]): < 30 nM
Ki (human D2short receptor; [2]): < 30 nM
Ki (5-HT1A receptor; porcine cortical membranes): < 30 nM
Ki (human D2long receptor; [2]): < 30 nM
D2short: [^35S]GTPγS intrinsic activity ([1]; % activity of quinpirol): A (A=Full antagonist (<15%))
melting point: 160 °C
Ki (5-HT2 receptor; [3]): 30 to 300 nM

N#Cc1cnn2ccc(OCCCCN3CCN(c4ccccc4Cl)CC3)cc12 [Example E38, 5-[4-[4-(2-Chlorophenyl)piperazin-1-yl]butoxy]pyrazolo[1,5-a]pyridine-3-carbonitrile]
Ki (human D4.4 receptor; [2]): < 30 nM
Ki (human D3 receptor; [2]): < 30 nM
Ki (human D2short receptor; [2]): < 30 nM
Ki (5-HT1A receptor; porcine cortical membranes): < 30 nM
Ki (human D2long receptor; [2]): < 30 nM
Emax [1]: 15 to 40%
melting point: 119 °C
Ki (5-HT2 receptor; [3]): 30 to 300 nM

COC(=O)c1cnn2ccc(OCCCCN3CCN(c4cccc(Cl)c4Cl)CC3)cc12 [Example E39, Methyl 5-[4-[4-(2,3-dichlorophenyl)piperazin-1-yl]butoxy]pyrazolo[1,5-a]pyridine-3-carboxylate]
Ki (human D4.4 receptor; [2]): < 30 nM
Ki (human D3 receptor; [2]): < 30 nM
Ki (human D2short receptor; [2]): < 30 nM
Ki (5-HT1A receptor; porcine cortical membranes): < 30 nM
Ki (human D2long receptor; [2]): < 30 nM
Emax [1]: < 15%
melting point: 73 °C
Ki (5-HT2 receptor; [3]): 30 to 300 nM

COC(=O)c1cnn2ccc(OCCCCN3CCN(c4ccccc4OC)CC3)cc12 [Example E40, Methyl 5-[4-[4-(2-methoxyphenyl)piperazin-1-yl]butoxy]pyrazolo[1,5-a]pyridine-3-carboxylate]
Ki (human D4.4 receptor; [2]): < 30 nM
Ki (human D3 receptor; [2]): < 30 nM
Ki (human D2short receptor; [2]): < 30 nM
Ki (5-HT1A receptor; porcine cortical membranes): < 30 nM
Ki (human D2long receptor; [2]): < 30 nM
Emax [1]: 15 to 40%
melting point: 75 °C
Ki (5-HT2 receptor; [3]): 30 to 300 nM

Clc1cccc(N2CCN(CCCCOc3ccn4ncc(Br)c4c3)CC2)c1Cl [Example E42, 3-Bromo-5-[4-[4-(2,3-dichlorophenyl)piperazin-1-yl]butoxy]pyrazolo[1,5-a]pyridine]
Ki (human D4.4 receptor; [2]): 301 to 3000 nM
Ki (human D3 receptor; [2]): < 30 nM
Ki (human D2short receptor; [2]): 30 to 300 nM
Ki (5-HT1A receptor; porcine cortical membranes): 301 to 3000 nM
Ki (human D2long receptor; [2]): 30 to 300 nM
Emax [1]: 15 to 40%
melting point: 132 °C
Ki (5-HT2 receptor; [3]): > 3000 nM

Clc1cccc(N2CCN(CCCCOc3ccn4ncc(Cl)c4c3)CC2)c1Cl [Example E45, 3-Chloro-5-[4-[4-(2,3-dichlorophenyl)piperazin-1-yl]butoxy]pyrazolo[1,5-a]pyridine]
Ki (human D4.4 receptor; [2]): 30 to 300 nM
Ki (human D3 receptor; [2]): < 30 nM
Ki (human D2short receptor; [2]): 30 to 300 nM
Ki (5-HT1A receptor; porcine cortical membranes): 30 to 300 nM
Ki (human D2long receptor; [2]): 30 to 300 nM
Emax [1]: 15 to 40%
melting point: 133 °C
Ki (5-HT2 receptor; [3]): 301 to 3000 nM

COc1ccccc1N1CCN(CCCCOc2ccn3ncc(Cl)c3c2)CC1 [Example E46, 3-Chloro-5-[4-[4-(2-methoxyphenyl)piperazin-1-yl]butoxy]pyrazolo[1,5-a]pyridine]
Ki (human D4.4 receptor; [2]): < 30 nM
Ki (human D4.4 receptor; [4]): 3.2 nM
Ki (human D3 receptor; [2]): < 30 nM
Ki (human D3 receptor; [4]): 4.6 nM
ratio D2lo/D3 (human D3 receptor; ratio of Ki values): 1.5
Ki (human D2short receptor; [2]): < 30 nM
Ki (human D2short receptor; [4]): 4.3 nM
Ki (5-HT1A receptor; [4]): 8.8 nM
Ki (5-HT1A receptor; porcine cortical membranes): < 30 nM
Ki (human D2long receptor; [2]): < 30 nM
Ki (human D2long receptor; [4]): 6.8 nM
Emax [1]: < 15%
melting point: 68 °C
Ki (5-HT2 receptor; [4]): 910 nM
Ki (5-HT2 receptor; [3]): 301 to 3000 nM

Clc1ccccc1N1CCN(CCCCOc2ccn3ncc(Cl)c3c2)CC1 [Example E47, 3-Chloro-5-[4-[4-(2-chlorophenyl)piperazin-1-yl]butoxy]pyrazolo[1,5-a]pyridine]
Ki (human D4.4 receptor; [2]): 30 to 300 nM
Ki (human D3 receptor; [2]): < 30 nM
Ki (human D2short receptor; [2]): < 30 nM
Ki (5-HT1A receptor; porcine cortical membranes): 30 to 300 nM
Ki (human D2long receptor; [2]): 30 to 300 nM
Emax [1]: < 15%
melting point: 63 °C
Ki (5-HT2 receptor; [3]): 301 to 3000 nM
